Data reported in ChEMBL document CHEMBL2086254, “Synthesis and identification of novel indolo[2,3-a]pyrimido[5,4-c]carbazoles as a new class of anti-cancer agents” (Eur J Med Chem, 2012).

Biological target: Cyclin-dependent kinase 2 (Homo sapiens, UniProt P24941)
Test: Inhibition of CDK2

Compound `Cn1c2ccccc2c2c3c(c4c5ccccc5n(CC(O)CO)c4c21)C(=O)NC3=O` (stereo unspecified) has an IC50 of less than 60 nM.
